Laboratory results from ChEMBL document CHEMBL4138216, “Design, synthesis and structure-activity relationship of a focused library of β-phenylalanine derivatives as novel eEF2K inhibitors with apoptosis-inducing mechanisms in breast cancer” (Eur J Med Chem, 2018).

How the values were obtained:
[1] = molecular target: T1, Eukaryotic elongation factor 2 kinase (Homo sapiens, UniProt O00418); test: Inhibition of eEF2K (unknown origin) using peptide MH-1 as substrate after 2 hrs by ADP-Glo luminescent assay
T1 sequence (O00418 whole entry): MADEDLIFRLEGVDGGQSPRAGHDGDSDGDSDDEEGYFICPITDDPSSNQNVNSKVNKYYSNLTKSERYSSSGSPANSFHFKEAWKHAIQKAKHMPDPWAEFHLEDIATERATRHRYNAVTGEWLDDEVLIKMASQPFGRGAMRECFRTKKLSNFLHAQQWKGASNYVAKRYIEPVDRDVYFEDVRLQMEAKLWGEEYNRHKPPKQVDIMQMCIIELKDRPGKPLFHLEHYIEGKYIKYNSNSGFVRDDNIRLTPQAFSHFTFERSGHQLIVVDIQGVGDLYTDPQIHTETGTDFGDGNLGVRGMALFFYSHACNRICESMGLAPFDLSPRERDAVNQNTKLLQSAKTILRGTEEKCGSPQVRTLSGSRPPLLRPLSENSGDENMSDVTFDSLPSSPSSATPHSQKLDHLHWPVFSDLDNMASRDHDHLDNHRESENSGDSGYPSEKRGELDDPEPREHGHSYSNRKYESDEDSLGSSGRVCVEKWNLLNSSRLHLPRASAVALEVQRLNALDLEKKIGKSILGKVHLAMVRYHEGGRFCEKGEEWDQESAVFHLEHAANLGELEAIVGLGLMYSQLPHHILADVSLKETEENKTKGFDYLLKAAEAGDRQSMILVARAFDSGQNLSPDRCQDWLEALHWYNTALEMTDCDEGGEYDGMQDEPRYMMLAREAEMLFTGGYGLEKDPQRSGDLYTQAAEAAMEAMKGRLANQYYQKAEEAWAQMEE

MDA-MB-436 = test: Antiproliferative activity against human MDA-MB-436 cells assessed as decrease in cell viability after 24 hrs by MTT assay; type: functional, cell-based; conditions: MDA-MB-436, 24 h
MDA-MB-231 = test: cells; conditions: Homo sapiens, MDA-MB-231, 24 h
Description: Antiproliferative activity against human MDA-MB-231 cells assessed as decrease in cell viability after 24 hrs by MTT assay

[2] = molecular target: T2, Eukaryotic elongation factor 2 kinase (Rattus norvegicus, UniProt P70531); test: Inhibition of recombinant rat GST-tagged eEF2K expressed in Escherichia coli BL21 (DE3) cells using yeast eEF2 as substrate preincubated for 30 mins followed by ATP/[gamma-32P]-ATP addition measured after 10 mins
T2 sequence (P70531 whole entry): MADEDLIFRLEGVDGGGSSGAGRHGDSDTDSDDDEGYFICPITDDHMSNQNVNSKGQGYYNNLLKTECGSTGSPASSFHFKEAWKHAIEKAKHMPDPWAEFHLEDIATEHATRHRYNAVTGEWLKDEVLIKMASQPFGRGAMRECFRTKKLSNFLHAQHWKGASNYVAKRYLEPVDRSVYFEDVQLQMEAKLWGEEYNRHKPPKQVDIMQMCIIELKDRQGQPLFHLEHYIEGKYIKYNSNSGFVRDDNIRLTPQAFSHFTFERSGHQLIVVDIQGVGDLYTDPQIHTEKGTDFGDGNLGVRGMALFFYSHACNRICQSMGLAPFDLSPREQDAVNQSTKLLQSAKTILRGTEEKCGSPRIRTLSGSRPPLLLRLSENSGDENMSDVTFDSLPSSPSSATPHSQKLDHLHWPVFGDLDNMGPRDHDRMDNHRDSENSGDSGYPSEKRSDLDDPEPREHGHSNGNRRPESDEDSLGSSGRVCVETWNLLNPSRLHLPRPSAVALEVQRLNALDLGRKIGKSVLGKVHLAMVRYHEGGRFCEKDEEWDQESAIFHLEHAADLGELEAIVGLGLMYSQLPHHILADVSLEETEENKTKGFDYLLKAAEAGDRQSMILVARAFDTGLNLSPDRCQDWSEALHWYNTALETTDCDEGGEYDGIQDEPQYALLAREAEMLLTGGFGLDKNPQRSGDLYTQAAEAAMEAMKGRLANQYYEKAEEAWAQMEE

[3] = molecular target: T1, Eukaryotic elongation factor 2 kinase; test: Inhibition of N-terminal GST-tagged recombinant human eEF2K expressed in Escherichia coli using biotinylated myelin basic protein as substrate after 45 mins in presence of [gamma-33P]-ATP by scintillation counting method

| Compound | IC50 [1] [µM] | IC50 (MDA-MB-436) [µM] | IC50 (MDA-MB-231) [µM] | IC50 [3] [µM] | IC50 [2] [µM] |
| --- | --- | --- | --- | --- | --- |
| O=C(O)CC(NS(=O)(=O)c1cc(F)cc(F)c1)c1ccccc1F (centres undefined) | 19.4 | 89.3 | 73.5 | – | – |
| CC(C)(C)c1ccc(C(CC(=O)O)NS(=O)(=O)c2ccccc2)cc1 (centres undefined) | > 50 | > 100 | > 100 | – | – |
| O=C(O)CC(NC(=O)c1ccc(F)cc1)c1ccccc1 (centres undefined) | 35.1 | > 100 | 84.3 | – | – |
| O=C(O)CC(NC(=O)c1cccc(Br)c1)c1ccc(Cl)cc1Cl (centres undefined) | 28.4 | > 100 | 82.5 | – | – |
| COc1ccccc1C(=O)NC(CC(=O)O)c1ccccc1 (centres undefined) | > 50 | > 100 | > 100 | – | – |
| O=C(O)CC(NS(=O)(=O)c1ccccc1)c1ccccc1 (centres undefined) | > 50 | > 100 | > 100 | – | – |
| COc1ccc(C(=O)NC(CC(=O)O)c2ccc(C(C)(C)C)cc2)cc1 (centres undefined) | 47.9 | > 100 | > 100 | – | – |
| COc1ccccc1C(=O)NC(CC(=O)O)c1ccc(Cl)cc1Cl (centres undefined) | > 50 | > 100 | > 100 | – | – |
| O=C(O)CC(NS(=O)(=O)c1ccc(OC(F)(F)F)cc1)c1ccccc1 (centres undefined) | > 50 | > 100 | > 100 | – | – |
| O=C(O)CC(NS(=O)(=O)c1ccccc1)c1ccccc1F (centres undefined) | > 50 | > 100 | > 100 | – | – |
| O=C(O)CC(NC(=O)c1ccc(F)cc1)c1ccccc1F (centres undefined) | 36.7 | > 100 | 72.3 | – | – |
| CC(C)(C)c1ccc(C(CC(=O)O)NC(=O)c2ccc(Cl)cc2Cl)cc1 (centres undefined) | 23.8 | > 100 | 67.8 | – | – |
| O=C(O)CC(NC(=O)c1cccc(Br)c1)c1ccccc1 (centres undefined) | > 50 | > 100 | > 100 | – | – |
| O=C(O)CC(NS(=O)(=O)c1ccccc1Br)c1ccccc1 (centres undefined) | > 50 | > 100 | > 100 | – | – |
| COc1ccccc1C(=O)NC(CC(=O)O)c1ccc(C(C)(C)C)cc1 (centres undefined) | > 50 | > 100 | > 100 | – | – |
| CC(C)(C)c1ccc(C(CC(=O)O)NC(=O)c2ccc(F)cc2)cc1 (centres undefined) | 31.6 | > 100 | 87.6 | – | – |

| Compound | IC50 [1] [µM] | IC50 (MDA-MB-436) [µM] | IC50 (MDA-MB-231) [µM] | IC50 [3] [µM] | IC50 [2] [µM] |
| --- | --- | --- | --- | --- | --- |
| O=C(O)CC(NS(=O)(=O)c1cccc([N+](=O)[O-])c1)c1ccc(Cl)cc1Cl (centres undefined) | 44.5 | > 100 | 77.8 | – | – |
| CCC1(O)CC(C(C)C)[Se]C(c2ccc(C)cc2)=N1 (centres undefined) | – | – | – | – | 0.36 |
| O=C(O)CC(NC(=O)c1ccc(Cl)cc1Cl)c1ccccc1F (centres undefined) | 33.7 | > 100 | 89.3 | – | – |
| O=C(O)CC(NC(=O)c1cccc(Br)c1)c1ccccc1F (centres undefined) | > 50 | > 100 | > 100 | – | – |
| CC(C)(C)c1ccc(C(CC(=O)O)NC(=O)c2c(Cl)cccc2Cl)cc1 (centres undefined) | > 50 | > 100 | > 100 | – | – |
| CC(C)(C)c1ccc(S(=O)(=O)NC(CC(=O)O)c2ccccc2)cc1 (centres undefined) | > 50 | > 100 | > 100 | – | – |
| CC(C)(C)c1ccc(C(CC(=O)O)NS(=O)(=O)c2ccc(OC(F)(F)F)cc2)cc1 (centres undefined) | > 50 | > 100 | > 100 | – | – |
| COc1ccc(C(=O)NC(CC(=O)O)c2ccc(Cl)cc2Cl)cc1 (centres undefined) | 44.4 | > 100 | > 100 | – | – |
| O=C(O)CC(NS(=O)(=O)c1cccc([N+](=O)[O-])c1)c1ccccc1 (centres undefined) | > 50 | > 100 | > 100 | – | – |
| CCCCCCCCCCCCCCCC[N+]1=C(C)N(Cc2ccccc2)CC1 | – | – | – | 0.06 | – |
| O=C(O)CC(NC(=O)c1c(Cl)cccc1Cl)c1ccc(Cl)cc1Cl (centres undefined) | > 50 | > 100 | > 100 | – | – |
| O=C(O)CC(NS(=O)(=O)c1ccccc1Br)c1ccc(Cl)cc1Cl (centres undefined) | > 50 | > 100 | > 100 | – | – |
| COc1ccccc1S(=O)(=O)NC(CC(=O)O)c1ccc(C(C)(C)C)cc1 (centres undefined) | > 50 | > 100 | > 100 | – | – |
| O=C(O)CC(NC(=O)c1c(Cl)cccc1Cl)c1ccccc1 (centres undefined) | > 50 | > 100 | > 100 | – | – |
| O=C(O)CC(NS(=O)(=O)c1ccc(F)cc1)c1ccccc1 (centres undefined) | 31.2 | > 100 | 88.4 | – | – |

More lines, main results first:

| IC50 [1] [µM] | IC50 (MDA-MB-436) [µM] | IC50 (MDA-MB-231) [µM] | IC50 [3] [µM] | Compound | IC50 [2] [µM] |
| --- | --- | --- | --- | --- | --- |
| 12.5 | 49.6 | 35.7 | – | O=C(O)CC(NS(=O)(=O)c1cc(F)cc(F)c1)c1ccc(Cl)cc1Cl (centres undefined) | – |
| 11.6 | 55.6 | 47.1 | – | O=C(O)CC(NS(=O)(=O)c1ccc(C(F)(F)F)cc1)c1ccccc1F (centres undefined) | – |
| 22.6 | 82.3 | 78.8 | – | CC(C)(C)c1ccc(C(CC(=O)O)NC(=O)c2ccc(C(F)(F)F)cc2)cc1 (centres undefined) | – |
| 18.4 | 60.1 | 53.7 | – | CC(C)(C)c1ccc(C(CC(=O)O)NS(=O)(=O)c2ccc(C(F)(F)F)cc2)cc1 (centres undefined) | – |
| 37.8 | 69.4 | 79.3 | – | O=C(O)CC(NS(=O)(=O)c1cc(F)cc(F)c1)c1ccccc1 (centres undefined) | – |
| 11.7 | 44.1 | 39.1 | – | O=C(O)CC(NC(=O)c1ccc(C(F)(F)F)cc1)c1ccc(Cl)cc1Cl (centres undefined) | – |
| 17.1 | 55.8 | 58.3 | – | O=C(O)CC(NC(=O)c1ccc(F)cc1)c1ccc(Cl)cc1Cl (centres undefined) | – |
| – | 4.2 | 2.8 | – | CNC(=O)c1cc(Oc2ccc(NC(=O)Nc3ccc(Cl)c(C(F)(F)F)c3)cc2)ccn1 [SORAFENIB] | – |
| 27.5 | 77.7 | 69.7 | – | N#Cc1ccc(S(=O)(=O)NC(CC(=O)O)c2ccccc2F)cc1 (centres undefined) | – |
| 33.4 | 59 | 57.8 | – | O=C(O)CC(NS(=O)(=O)c1ccccc1)c1ccc(Cl)cc1Cl (centres undefined) | – |
| 19.6 | 54.7 | 56.1 | – | O=C(O)CC(NS(=O)(=O)c1ccc(C(F)(F)F)cc1)c1ccccc1 (centres undefined) | – |
| 44.5 | 66.8 | 59.2 | – | O=C(O)CC(NC(=O)c1ccc(C(F)(F)F)cc1)c1ccccc1F (centres undefined) | – |
| 9.5 | 37.6 | 30.4 | – | O=C(O)CC(NS(=O)(=O)c1ccc(C(F)(F)F)cc1)c1ccc(Cl)cc1Cl (centres undefined) | – |
| 38.5 | 68.9 | 66.2 | – | CC(C)(C)c1ccc(C(CC(=O)O)NS(=O)(=O)c2ccc(F)cc2)cc1 (centres undefined) | – |
| 29.3 | 78.2 | 67.2 | – | O=C(O)CC(NC(=O)c1ccc(Cl)cc1Cl)c1ccccc1 (centres undefined) | – |
| 19.9 | 57.3 | 49.2 | – | O=C(O)CC(NC(=O)c1ccc(Cl)cc1Cl)c1ccc(Cl)cc1Cl (centres undefined) | – |
| 18.7 | 59.3 | 48.7 | – | N#Cc1ccc(S(=O)(=O)NC(CC(=O)O)c2ccccc2)cc1 (centres undefined) | – |
